Measured values as given in ChEMBL document CHEMBL6127075, “Tetrazoles: A multi-potent motif in drug design” (Eur J Med Chem, 2024).
Values after ≈ are worked out from the molar mass of the structure shown.

Key:
[1] = test system: Aspergillus flavus; assay: Antifungal activity against Aspergillus flavus assessed as inhibition of fungal growth; type: functional
[2] = test system: MCF7; assay: Cytotoxicity against human MCF7 cells assessed as reduction in cell growth at 25 uM incubated for 48 hrs by MTT assay relative to control; type: functional; parameters: scale not given: the % may be the effect or the level left
[3] = test system: CCRF-CEM; assay: Cytotoxicity against human CCRF-CEM cells assessed as reduction in cell growth at 25 uM incubated for 48 hrs by MTT assay relative to control; type: functional; parameters: scale not given: the % may be the effect or the level left
[4] = test system: Nannizzia gypsea; assay: Antifungal activity against Microsporum gypseum assessed as reduction in fungal growth; type: functional
[5] = test system: Escherichia coli; assay: Antibacterial activity against Escherichia coli ATCC 25922 assessed as bacterial growth inhibition incubated for 24 hrs by broth dilution method; type: functional
[6] = test system: Staphylococcus aureus; assay: Antibacterial activity against Staphylococcus aureus ATCC 29213 assessed as bacterial growth inhibition incubated for 24 hrs by broth dilution method; type: functional
[7] = test system: Pseudomonas aeruginosa; assay: Antimicrobial activity against Pseudomonas aeruginosa ATCC 27853 assessed as inhibition of microbial growth incubated for 24 hrs by broth microdilution method; type: functional
[8] = test system: Staphylococcus epidermidis; assay: Antibacterial activity against Staphylococcus epidermidis ATCC 12228 assessed as bacterial growth inhibition incubated for 24 hrs by broth dilution method; type: functional
[9] = test system: Staphylococcus aureus; assay: Antibacterial activity against Staphylococcus aureus assessed as reduction in microbial growth by CLSI based broth microdilution method; type: functional
[10] = Antagonist activity at NMDA receptor (unknown origin); parameters: species or system Homo sapiens
[11] = test system: Staphylococcus epidermidis; assay: Antibacterial activity against Staphylococcus epidermidis ATCC 12228 assessed as reduction in microbial growth by incubated for 18 hrs CLSI based broth microdilution method; type: functional
[12] = test system: Escherichia coli; assay: Antimicrobial activity against Escherichia coli NCTC 8196 assessed as reduction in microbial growth measured fro 18 hrs by two-fold serial dilution method; type: functional
[13] = test system: Escherichia coli; assay: Antibacterial activity against Escherichia coli ATCC 25922 assessed as reduction in microbial growth by incubated for 18 hrs CLSI based broth microdilution method; type: functional
[14] = Antioxidant activity assessed as DPPH radical scavenging activity after 30 mins by spectrophotometric analysis; type: functional
[15] = molecular target: T1, Tyrosine-protein phosphatase non-receptor type 1 (Homo sapiens, UniProt P18031); assay: Inhibition of PTP1B (unknown origin)
T1 sequence (P18031 whole entry): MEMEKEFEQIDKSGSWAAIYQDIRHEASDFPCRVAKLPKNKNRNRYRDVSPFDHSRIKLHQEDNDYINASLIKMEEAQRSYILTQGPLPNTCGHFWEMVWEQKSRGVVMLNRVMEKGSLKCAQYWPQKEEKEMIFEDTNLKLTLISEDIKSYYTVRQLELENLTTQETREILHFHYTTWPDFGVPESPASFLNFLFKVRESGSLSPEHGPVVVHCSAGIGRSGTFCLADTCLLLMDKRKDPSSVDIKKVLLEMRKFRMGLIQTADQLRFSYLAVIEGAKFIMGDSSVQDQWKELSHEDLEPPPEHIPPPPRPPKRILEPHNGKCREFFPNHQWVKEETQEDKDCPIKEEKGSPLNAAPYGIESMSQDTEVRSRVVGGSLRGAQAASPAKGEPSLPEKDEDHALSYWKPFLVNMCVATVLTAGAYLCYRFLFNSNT

[16] = test system: Pichia kudriavzevii; assay: Antifungal activity against Candida krusei ATCC 6258 assessed as inhibition of fungal growth incubated for 24 hrs by microtiter plate reader assay; type: functional
[17] = test system: Micrococcus luteus; assay: Antibacterial activity against Micrococcus luteus assessed as bacterial growth inhibition after 24 hrs by broth macro dilution method; type: functional
[18] = test system: Staphylococcus aureus; assay: Antibacterial activity against Staphylococcus aureus MTCC-739 assessed as bacterial growth inhibition after 24 hrs by broth macro dilution method; type: functional
[19] = test system: Escherichia coli; assay: Antibacterial activity against Escherichia coli assessed as bacterial growth inhibition after 24 hrs by broth macro dilution method; type: functional
[20] = test system: Pseudomonas aeruginosa; assay: Antibacterial activity against Pseudomonas aeruginosa assessed as bacterial growth inhibition after 24 hrs by broth macro dilution method; type: functional
[21] = test system: Staphylococcus aureus; assay: Antibacterial activity against Staphylococcus aureus MTCC-96 assessed as bacterial growth inhibition after 24 hrs by broth macro dilution method; type: functional
[22] = test system: MCF7; assay: Cytotoxicity against human MCF7 cells assessed as reduction in cell viability incubated for 24 hrs by MTT assay; type: functional, cell-based; settings: MCF7, 24 h
[23] = test system: HepG2; assay: Cytotoxicity against human HepG2 cells assessed as reduction in cell viability incubated for 24 hrs by MTT assay; type: functional, cell-based; settings: HepG2, 24 h
[24] = molecular target: Type-1 angiotensin II receptor (Homo sapiens) (UniProt P30556); assay: Inhibition of Angiotensin-2 receptor (unknown origin)
Chain of Type-1 angiotensin II receptor (Homo sapiens) (P30556 whole entry, looked up): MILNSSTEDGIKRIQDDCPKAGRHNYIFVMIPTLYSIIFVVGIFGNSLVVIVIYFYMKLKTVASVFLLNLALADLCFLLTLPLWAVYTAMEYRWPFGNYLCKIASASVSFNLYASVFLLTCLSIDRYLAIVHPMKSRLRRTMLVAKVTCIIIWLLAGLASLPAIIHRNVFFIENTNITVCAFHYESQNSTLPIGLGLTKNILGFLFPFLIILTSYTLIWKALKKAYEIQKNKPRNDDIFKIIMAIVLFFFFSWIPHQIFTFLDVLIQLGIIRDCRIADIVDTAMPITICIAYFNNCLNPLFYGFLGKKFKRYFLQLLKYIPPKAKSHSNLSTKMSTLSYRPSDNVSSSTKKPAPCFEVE

[25] = test system: HUVEC; assay: Antiproliferative activity against HUVEC cells assessed as inhibition of cell proliferation incubated for 72 hrs by Cell Titer Luminescence assay; type: functional, cell-based; settings: Homo sapiens
[26] = molecular target: Cholinesterase (Homo sapiens, UniProt P06276); assay: Inhibition of BChE (unknown origin) using acetylthiocholine iodide as substrate preincubated for 20 mins followed by substrate addition and measured after 5 mins by Ellman's method
Chain of Cholinesterase (P06276 whole entry): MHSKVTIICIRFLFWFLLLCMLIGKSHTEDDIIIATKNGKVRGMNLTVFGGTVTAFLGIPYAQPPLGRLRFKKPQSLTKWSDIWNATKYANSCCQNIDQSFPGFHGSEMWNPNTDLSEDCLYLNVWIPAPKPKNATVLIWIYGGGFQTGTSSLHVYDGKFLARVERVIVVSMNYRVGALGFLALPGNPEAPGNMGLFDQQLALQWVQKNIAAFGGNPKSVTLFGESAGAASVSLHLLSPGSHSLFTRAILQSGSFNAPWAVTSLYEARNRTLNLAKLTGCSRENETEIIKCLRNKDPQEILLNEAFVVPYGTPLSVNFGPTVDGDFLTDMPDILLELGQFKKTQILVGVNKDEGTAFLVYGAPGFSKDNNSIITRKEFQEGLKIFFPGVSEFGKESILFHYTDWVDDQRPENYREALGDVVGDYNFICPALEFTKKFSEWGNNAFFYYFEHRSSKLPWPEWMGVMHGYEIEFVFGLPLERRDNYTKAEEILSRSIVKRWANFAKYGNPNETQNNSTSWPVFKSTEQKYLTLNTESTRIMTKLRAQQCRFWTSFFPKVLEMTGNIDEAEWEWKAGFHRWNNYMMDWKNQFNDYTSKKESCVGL

[27] = Antiproliferative activity against human RWPE-1 cells assessed as inhibition of cell growth measured after 24 hrs by MTT assay; type: toxicity, cell-based
[28] = test system: PC-3; assay: Antiproliferative activity against human PC-3 cells assessed as inhibition of cell growth measured after 24 hrs by MTT assay; type: functional, cell-based; settings: PC-3, 24 h
[29] = test system: DU-145; assay: Antiproliferative activity against human DU-145 cells assessed as inhibition of cell growth measured after 24 hrs by MTT assay; type: functional, cell-based; settings: DU-145, 24 h
[30] = test system: PC-3; assay: Cytotoxicity against human PC-3 cells assessed as reduction in cell growth incubated for 24 hrs by MTT assay; type: functional, cell-based; settings: PC-3, 24 h

## COc1ccc(-n2nnnc2SCc2cn(-c3ccc4c(cnn4C)c3)nn2)cc1
[1]
  MIC: 10 mg/L (≈ 23.8 µM)

## Clc1ccccc1-c1nnnn1CCCn1cnc2c(Br)c(Br)c(Br)c(Br)c21
[2]
  Activity: <1%
[3]
  Activity: <1%

## CCC(C)n1ncn(-c2ccc(N3CCN(c4ccc(OCC5COC(Cn6cncn6)(c6ccc(Cl)cc6Cl)O5)cc4)CC3)cc2)c1=O (stereo not drawn) [ITRACONAZOLE]
[1]
  MIC: 8 mg/L (≈ 11.3 µM)
[4]
  MIC: 10 mg/L (≈ 14.2 µM)

## CC1=C(C)C2(C)CC1(C)C1C(=O)N(Nc3nnnn3-c3ccccc3Br)C(=O)C12 (stereo not drawn)
[5]
  MIC: 0.4 mg/L (≈ 0.875 µM)
[6]
  MIC: 0.4 mg/L (≈ 0.875 µM)
[7]
  MIC: 0.4 mg/L
[8]
  MIC: 0.4 mg/L (≈ 0.875 µM)
[9]
  MIC: 0.1 mg/L

## O=C(O)[C@H]1C[C@@H](Cc2nnn[nH]2)CCN1 (single isomer, unassigned)
[10]
  IC50: 0.1 µM

## Fc1ccc(-n2nnnc2NCc2ccco2)cc1Cl
[11]
  MIC: 2 mg/L
[12]
  MIC: 2 mg/L
[13]
  MIC: 2 mg/L

## Cc1cn(C2OC(CO)CC2n2nnnc2-c2cccnc2Cl)c(=O)[nH]c1=O (stereo not drawn)
[14]
  IC50: 25.87 mg/L (≈ 63.8 µM)

## OC1C2CC3CC1CC(C2)C3(Cc1nnn[nH]1)c1ccc(-c2ccc(F)cc2)cc1 (stereo not drawn)
[15]
  IC50: 0.0037 µM

## C[C@@H](c1ncncc1F)[C@](O)(Cn1cncn1)c1ccc(F)cc1F [VORICONAZOLE]
[16]
  MIC: 3.9 mg/L (≈ 11.2 µM)

## COc1ccc(-c2nnc(C[Se]c3nnn[nH]3)o2)cc1
[14]
  IC50: 27.63 mg/L (≈ 81.9 µM)

## Clc1ncccc1-c1nnn[nH]1
[14]
  IC50: 27.63 mg/L (≈ 152 µM)

## Cn1ncc2cc(-n3cc(CSc4nnnn4-c4cccc(O)c4)nn3)ccc21
[17]
  MIC: 5 mg/L (≈ 12.3 µM)
[18]
  MIC: 5 mg/L (≈ 12.3 µM)
[19]
  MIC: 5 mg/L (≈ 12.3 µM)
[20]
  MIC: 5 mg/L (≈ 12.3 µM)
[21]
  MIC: 5 mg/L (≈ 12.3 µM)

## C1=C(c2nnn(Cc3cn(Cc4ccccc4)nn3)n2)COc2ccccc21
[14]
  IC50: 27.63 mg/L (≈ 74.4 µM)

## Cc1cn(C2OC(CO)CC2n2nnnc2Cc2c[nH]c3ccccc23)c(=O)[nH]c1=O (stereo not drawn)
[14]
  IC50: 25.87 mg/L (≈ 61.1 µM)

## Fc1ccccc1-n1nnnc1NCc1ccco1
[11]
  MIC: 2 mg/L
[12]
  MIC: 2 mg/L
[13]
  MIC: 2 mg/L

## Cn1nnnc1SCC(=O)N1CCN(C2CCCCC2)CC1
[16]
  MIC: 3.9 mg/L (≈ 12 µM)

## CC1=C(C)C2(C)CC1(C)C1C(=O)N(Nc3nnnn3-c3ccccc3Cl)C(=O)C12 (stereo not drawn)
[5]
  MIC: 0.4 mg/L (≈ 0.969 µM)
[6]
  MIC: 0.4 mg/L (≈ 0.969 µM)
[7]
  MIC: 0.4 mg/L
[8]
  MIC: 0.4 mg/L (≈ 0.969 µM)

## Clc1ccc(-c2nn[se]c2-n2nnc(-c3ccccc3Cl)n2)cc1
[22]
  IC50: 43.2 µM
[23]
  IC50: 43.2 µM

## O=P(O)(O)CN[C@@H](Cc1ccc(-c2ccccc2)cc1)c1nnn[nH]1
[24]
  IC50: 0.0009 µM

## CCC(C)n1ncn(-c2ccc(N3CCN(c4ccc(OC[C@@H]5CO[C@@](Cn6ncnn6)(c6ccc(Cl)cc6Cl)O5)cc4)CC3)cc2)c1=O (stereo partly drawn)
[25]
  IC50: 0.073 µM

## Cn1ncc2cc(-n3cc(CSc4nnnn4-c4cccc([N+](=O)[O-])c4)nn3)ccc21
[17]
  MIC: 5 mg/L (≈ 11.5 µM)
[4]
  MIC: 11 mg/L (≈ 25.3 µM)
[18]
  MIC: 5 mg/L (≈ 11.5 µM)
[19]
  MIC: 5 mg/L (≈ 11.5 µM)
[20]
  MIC: 5 mg/L (≈ 11.5 µM)
[21]
  MIC: 5 mg/L (≈ 11.5 µM)

## Clc1ccc(-c2nn[se]c2-n2nnc(-c3ccccc3)n2)cc1
[22]
  IC50: 43.2 µM
[23]
  IC50: 43.2 µM

## COc1ccccc1C1=C(C#N)/C(=C(/C)c2nnn[nH]2)NC(C)(c2ccccc2OC)C1 (stereo not drawn)
[26]
  IC50: 0.29 µM

## O=C1N(Cc2ccc(Br)cc2)c2ccccc2C1(O)Cc1nnn[nH]1 (stereo not drawn)
[27]
  IC50 at 24 h: 76 µM
[28]
  IC50: 10.1 µM
[29]
  IC50: 11.7 µM

## OC(Cn1cncn1)(Cn1cncn1)c1ccc(F)cc1F [FLUCONAZOLE]
[16]
  MIC: 7.8 mg/L (≈ 25.5 µM)

## Cn1ncc2cc(-n3cc(CSc4nnnn4-c4ccc(F)cc4F)nn3)ccc21
[17]
  MIC: 5 mg/L (≈ 11.8 µM)
[18]
  MIC: 5 mg/L (≈ 11.8 µM)
[19]
  MIC: 5 mg/L (≈ 11.8 µM)
[20]
  MIC: 5 mg/L (≈ 11.8 µM)
[21]
  MIC: 5 mg/L (≈ 11.8 µM)

## O=C(O)Cn1nnc(-c2cn(-c3ccccc3)nc2-c2ccc(Cl)cc2)n1
[30]
  IC50: 6.43 µM

## COc1cccc2c1C(=O)c1c(O)c3c(c(O)c1C2=O)C[C@@](O)(C(=O)CO)C[C@@H]3O[C@H]1C[C@H](N)[C@H](O)[C@H](C)O1 [DOXORUBICIN]
[30]
  IC50: 2.24 µM

## O=S(=O)(c1ccccc1)n1nnc(CCSc2cc3ccccc3[nH]2)n1
[14]
  IC50: 27.63 mg/L (≈ 71.7 µM)

## Cn1ncc2cc(-n3cc(CSc4nnnn4-c4cccc(F)c4)nn3)ccc21
[17]
  MIC: 5 mg/L (≈ 12.3 µM)
[18]
  MIC: 5 mg/L (≈ 12.3 µM)
[19]
  MIC: 5 mg/L (≈ 12.3 µM)
[20]
  MIC: 5 mg/L (≈ 12.3 µM)
[21]
  MIC: 5 mg/L (≈ 12.3 µM)

## CO/N=C1\CN(c2nc3c(cc2F)c(=O)c(C(=O)O)cn3C2CC2)CC1CN (stereo not drawn) [GEMIFLOXACIN]
[19]
  MIC: 10 mg/L (≈ 25.7 µM)
[20]
  MIC: 10 mg/L (≈ 25.7 µM)

## O=P(O)(O)CN[C@@H](Cc1ccc2oc3ccccc3c2c1)c1nnn[nH]1
[24]
  IC50: 0.006 µM

## Cc1ccc(-n2nnnc2NCc2ccco2)cc1Cl
[11]
  MIC: 2 mg/L
[12]
  MIC: 2 mg/L
[13]
  MIC: 2 mg/L

## Brc1c(Br)c(Br)c2c(ncn2CCCn2nnnc2-c2ccccc2)c1Br
[2]
  Activity: <1%
[3]
  Activity: <1%

## Clc1ccc(-c2nnn(-c3[se]nnc3-c3ccc(Cl)cc3)n2)cc1
[22]
  IC50: 43.2 µM
[23]
  IC50: 43.2 µM

## CC1=C(C)C2(C)CC1(C)C1C(=O)N(Nc3nnnn3-c3cccc(C(F)(F)F)c3)C(=O)C12 (stereo not drawn)
[5]
  MIC: 0.4 mg/L (≈ 0.896 µM)
[6]
  MIC: 0.4 mg/L (≈ 0.896 µM)
[7]
  MIC: 0.4 mg/L
[8]
  MIC: 0.4 mg/L (≈ 0.896 µM)
